pIC50: −log10 of the molar value.
Test system: 922993-354-T-J3-PDC complex spheroids, viability
Test: Anticancer human tumor 922993-354-T-J3-PDC patient-derived endometrial carcinoma cell line growth inhibition [GQUAD]
Settings: for pIC50: curve of first compound; for viability, T/C: stronger effect = lower value
Method in brief: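 Tumor cells were grown as complex spheroids with HUVEC endothelial cells and mesenchymal stem cells as stroma. G-quadruplex stabilizers were combined with targeted agents over half-log dilutions from near the clinical Cmax, or from 10 microM.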

[1] = second compound 0.0316 µM, first compound 0.0316 µM
[2] = second compound 0.0316 µM, first compound 0.1 µM
[3] = second compound 0.0316 µM, first compound 0.316 µM
[4] = second compound 0.0316 µM, first compound 1 µM
[5] = second compound 0.0316 µM, first compound 3.16 µM
[6] = second compound 0.0316 µM, first compound 10 µM
[7] = second compound 0.1 µM, first compound 0.0316 µM
[8] = second compound 0.1 µM, first compound 0.1 µM
[9] = second compound 0.1 µM, first compound 0.316 µM
[10] = second compound 0.1 µM, first compound 1 µM
[11] = second compound 0.1 µM, first compound 3.16 µM
[12] = second compound 0.1 µM, first compound 10 µM
[13] = second compound 0.316 µM, first compound 0.0316 µM
[14] = second compound 0.316 µM, first compound 0.1 µM
[15] = second compound 0.316 µM, first compound 0.316 µM
[16] = second compound 0.316 µM, first compound 1 µM
[17] = second compound 0.316 µM, first compound 3.16 µM
[18] = second compound 0.316 µM, first compound 10 µM
[19] = second compound 1 µM, first compound 0.0316 µM
[20] = second compound 1 µM, first compound 0.1 µM
[21] = second compound 1 µM, first compound 0.316 µM
[22] = second compound 1 µM, first compound 1 µM
[23] = second compound 1 µM, first compound 3.16 µM
[24] = second compound 1 µM, first compound 10 µM
[25] = second compound 3.16 µM, first compound 0.0316 µM
[26] = second compound 3.16 µM, first compound 0.1 µM
[27] = second compound 3.16 µM, first compound 0.316 µM
[28] = second compound 3.16 µM, first compound 1 µM
[29] = second compound 3.16 µM, first compound 3.16 µM
[30] = second compound 3.16 µM, first compound 10 µM
[31] = second compound 10 µM, first compound 0.0316 µM
[32] = second compound 10 µM, first compound 0.1 µM
[33] = second compound 10 µM, first compound 0.316 µM
[34] = second compound 10 µM, first compound 1 µM
[35] = second compound 10 µM, first compound 3.16 µM
[36] = second compound 10 µM, first compound 10 µM
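Also: spheroids exposed to compounds for seven days.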
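For viability, T/C in this document: 100% = DMSO vehicle control viability.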

O=C(c1cc(Cc2n[nH]c(=O)c3ccccc23)ccc1F)N1CCN(C(=O)C2CC2)CC1 + Cc1cnc(CNC(=O)c2c(=O)c3ccc(N4CCCN(C)CC4)nc3n3c2sc2ccccc23)cn1
pIC50 (second compound 0.0316 µM): < 5.00 | pIC50 (second compound 0.1 µM): < 5.00 | pIC50 (second compound 0.316 µM): > 7.50 | pIC50 (second compound 1 µM): > 7.50 | pIC50 (second compound 3.16 µM): > 7.50 | pIC50 (second compound 10 µM): 5.42 | viability, T/C [1]: 79.7% | viability, T/C [2]: 78% | viability, T/C [3]: 90.8% | viability, T/C [4]: 92.5% | viability, T/C [5]: 61.2% | viability, T/C [6]: 75% | viability, T/C [7]: 74.1% | viability, T/C [8]: 68.3% | viability, T/C [9]: 64.1% | viability, T/C [10]: 49.1% | viability, T/C [11]: 54.4% | viability, T/C [12]: 76% | viability, T/C [13]: 57.4% | viability, T/C [14]: 46.1% | viability, T/C [15]: 39.4% | viability, T/C [16]: 42% | viability, T/C [17]: 50.4% | viability, T/C [18]: 55.3% | viability, T/C [19]: 50.2% | viability, T/C [20]: 51.7% | viability, T/C [21]: 37.2% | viability, T/C [22]: 43.5% | viability, T/C [23]: 48.5% | viability, T/C [24]: 41.1% | viability, T/C [25]: 43.7% | viability, T/C [26]: 53.4% | viability, T/C [27]: 53.4% | viability, T/C [28]: 57.7% | viability, T/C [29]: 51.3% | viability, T/C [30]: 49.8% | viability, T/C [31]: 42.8% | viability, T/C [32]: 53.4% | viability, T/C [33]: 60.1% | viability, T/C [34]: 52.8% | viability, T/C [35]: 52% | viability, T/C [36]: 39.2%

CC1COCCN1c1cc(-c2ccnn2C)c2ccnc(-c3ccn[nH]3)c2n1 (stereo not given) + Cc1cnc(CNC(=O)c2c(=O)c3ccc(N4CCCN(C)CC4)nc3n3c2sc2ccccc23)cn1
pIC50 (second compound 0.0316 µM): > 7.50 | pIC50 (second compound 0.1 µM): > 7.50 | pIC50 (second compound 0.316 µM): > 7.50 | pIC50 (second compound 1 µM): > 7.50 | pIC50 (second compound 3.16 µM): > 7.50 | pIC50 (second compound 10 µM): > 7.50 | viability, T/C [1]: 49.1% | viability, T/C [2]: 50.3% | viability, T/C [3]: 42.2% | viability, T/C [4]: 24.7% | viability, T/C [5]: 24.3% | viability, T/C [6]: 21.9% | viability, T/C [7]: 45.4% | viability, T/C [8]: 42.9% | viability, T/C [9]: 25.3% | viability, T/C [10]: 25.7% | viability, T/C [11]: 28.9% | viability, T/C [12]: 20.7% | viability, T/C [13]: 45.5% | viability, T/C [14]: 44.4% | viability, T/C [15]: 37.2% | viability, T/C [16]: 33.5% | viability, T/C [17]: 22.9% | viability, T/C [18]: 20.9% | viability, T/C [19]: 43.7% | viability, T/C [20]: 51.7% | viability, T/C [21]: 46% | viability, T/C [22]: 43.8% | viability, T/C [23]: 22.9% | viability, T/C [24]: 6.94% | viability, T/C [25]: 50.1% | viability, T/C [26]: 43.8% | viability, T/C [27]: 46.6% | viability, T/C [28]: 36.6% | viability, T/C [29]: 8.14% | viability, T/C [30]: 0.53% | viability, T/C [31]: 51.9% | viability, T/C [32]: 42% | viability, T/C [33]: 46.3% | viability, T/C [34]: 22.2% | viability, T/C [35]: 0.68% | viability, T/C [36]: 0.18%

CC1COCCN1c1cc(-c2ccnn2C)c2ccnc(-c3ccn[nH]3)c2n1 (stereo not given) + CN(C)c1ccc(Nc2c3ccc(NC(=O)CCN4CCCC4)cc3nc3cc(NC(=O)CCN4CCCC4)ccc23)cc1
pIC50 (second compound 0.0316 µM): 6.59 | pIC50 (second compound 0.1 µM): 6.72 | pIC50 (second compound 0.316 µM): 6.76 | pIC50 (second compound 1 µM): 6.56 | pIC50 (second compound 3.16 µM): 6.75 | pIC50 (second compound 10 µM): 6.40 | viability, T/C [1]: 98.4% | viability, T/C [2]: 73.4% | viability, T/C [3]: 50.3% | viability, T/C [4]: 16.7% | viability, T/C [5]: 18% | viability, T/C [6]: 20% | viability, T/C [7]: 110% | viability, T/C [8]: 68.2% | viability, T/C [9]: 36.1% | viability, T/C [10]: 18.2% | viability, T/C [11]: 20.2% | viability, T/C [12]: 12.3% | viability, T/C [13]: 105% | viability, T/C [14]: 58.1% | viability, T/C [15]: 46.9% | viability, T/C [16]: 16.8% | viability, T/C [17]: 16.5% | viability, T/C [18]: 19.6% | viability, T/C [19]: 84.8% | viability, T/C [20]: 64.2% | viability, T/C [21]: 54.2% | viability, T/C [22]: 22.9% | viability, T/C [23]: 19.1% | viability, T/C [24]: 21.4% | viability, T/C [25]: 119% | viability, T/C [26]: 52.7% | viability, T/C [27]: 54.3% | viability, T/C [28]: 18.2% | viability, T/C [29]: 21.3% | viability, T/C [30]: 22.4% | viability, T/C [31]: 130% | viability, T/C [32]: 79.8% | viability, T/C [33]: 65.2% | viability, T/C [34]: 25.6% | viability, T/C [35]: 21.2% | viability, T/C [36]: 19.6%

Nc1ccn(C2OC(CO)C(O)C2(F)F)c(=O)n1 (stereo not given) + CN(C)c1ccc(Nc2c3ccc(NC(=O)CCN4CCCC4)cc3nc3cc(NC(=O)CCN4CCCC4)ccc23)cc1
pIC50 (second compound 0.0316 µM): > 7.50 | pIC50 (second compound 0.1 µM): > 7.50 | pIC50 (second compound 0.316 µM): > 7.50 | pIC50 (second compound 1 µM): > 7.50 | pIC50 (second compound 3.16 µM): > 7.50 | pIC50 (second compound 10 µM): > 7.50 | viability, T/C [1]: 13.6% | viability, T/C [2]: 14.7% | viability, T/C [3]: 11.9% | viability, T/C [4]: 16.6% | viability, T/C [5]: 10.6% | viability, T/C [6]: 12.7% | viability, T/C [7]: 13.4% | viability, T/C [8]: 13.2% | viability, T/C [9]: 12.2% | viability, T/C [10]: 10.8% | viability, T/C [11]: 10.4% | viability, T/C [12]: 11.9% | viability, T/C [13]: 13.9% | viability, T/C [14]: 9.77% | viability, T/C [15]: 10.7% | viability, T/C [16]: 13.1% | viability, T/C [17]: 9.83% | viability, T/C [18]: 11.2% | viability, T/C [19]: 12.5% | viability, T/C [20]: 8.2% | viability, T/C [21]: 12% | viability, T/C [22]: 13% | viability, T/C [23]: 12% | viability, T/C [24]: 11.8% | viability, T/C [25]: 13.8% | viability, T/C [26]: 11.6% | viability, T/C [27]: 16.8% | viability, T/C [28]: 12.2% | viability, T/C [29]: 11.3% | viability, T/C [30]: 13.3% | viability, T/C [31]: 15.8% | viability, T/C [32]: 11.4% | viability, T/C [33]: 11.6% | viability, T/C [34]: 14.4% | viability, T/C [35]: 11% | viability, T/C [36]: 11.3%

Cc1cccc(N(C)C(=O)C2C(O)CCN2c2nc(C)cc(C(F)(F)F)c2C#N)c1 (stereo not given) + Cc1cnc(CNC(=O)c2c(=O)c3ccc(N4CCCN(C)CC4)nc3n3c2sc2ccccc23)cn1
pIC50 (second compound 0.0316 µM): < 5.00 | pIC50 (second compound 0.1 µM): 5.38 | pIC50 (second compound 0.316 µM): > 7.50 | pIC50 (second compound 1 µM): < 5.00 | pIC50 (second compound 3.16 µM): > 7.50 | pIC50 (second compound 10 µM): > 7.50 | viability, T/C [1]: 78% | viability, T/C [2]: 87.2% | viability, T/C [3]: 88% | viability, T/C [4]: 77.9% | viability, T/C [5]: 74.6% | viability, T/C [6]: 68.6% | viability, T/C [7]: 65.1% | viability, T/C [8]: 62.4% | viability, T/C [9]: 59% | viability, T/C [10]: 52.9% | viability, T/C [11]: 55.8% | viability, T/C [12]: 43.9% | viability, T/C [13]: 50.3% | viability, T/C [14]: 42.7% | viability, T/C [15]: 43.4% | viability, T/C [16]: 53.7% | viability, T/C [17]: 45.5% | viability, T/C [18]: 47.1% | viability, T/C [19]: 54.7% | viability, T/C [20]: 59% | viability, T/C [21]: 54.4% | viability, T/C [22]: 46.1% | viability, T/C [23]: 57.8% | viability, T/C [24]: 53.5% | viability, T/C [25]: 50.9% | viability, T/C [26]: 44.4% | viability, T/C [27]: 41.3% | viability, T/C [28]: 46.1% | viability, T/C [29]: 51.1% | viability, T/C [30]: 44.6% | viability, T/C [31]: 39.6% | viability, T/C [32]: 48.5% | viability, T/C [33]: 56.8% | viability, T/C [34]: 39.1% | viability, T/C [35]: 50.6% | viability, T/C [36]: 41.4%
